In the NIST ThermoML archive (doi:10.1016/j.jct.2004.12.008):

Test: xn = mol fraction of the nth substance listed
Details: 101 kPa, Liquid

O=[N+]([O-])c1ccccc1 [nitrobenzene] + Cc1ccccc1C
Details	mass density [kg/m3]
293.15 K, x2 = 0	1202.95
293.15 K, x2 = 0.0498	1184.47
293.15 K, x2 = 0.1289	1155.75
293.15 K, x2 = 0.1892	1134.33
293.15 K, x2 = 0.2532	1112.04
293.15 K, x2 = 0.3234	1088.07
293.15 K, x2 = 0.3891	1066.07
293.15 K, x2 = 0.4421	1048.61
293.15 K, x2 = 0.4923	1032.31
293.15 K, x2 = 0.5534	1012.76
293.15 K, x2 = 0.6132	993.93
293.15 K, x2 = 0.6734	975.26
293.15 K, x2 = 0.7321	957.32
293.15 K, x2 = 0.7931	938.95
293.15 K, x2 = 0.8523	921.38
293.15 K, x2 = 0.9323	898.02
303.15 K, x2 = 0	1193.56
303.15 K, x2 = 0.0535	1173.86
303.15 K, x2 = 0.1123	1152.62
303.15 K, x2 = 0.1782	1129.29
303.15 K, x2 = 0.2423	1107.06
303.15 K, x2 = 0.3139	1082.76
303.15 K, x2 = 0.3687	1064.49
303.15 K, x2 = 0.4348	1042.84
303.15 K, x2 = 0.5023	1021.14
303.15 K, x2 = 0.5681	1000.36
303.15 K, x2 = 0.6189	984.56
303.15 K, x2 = 0.6892	963.04
303.15 K, x2 = 0.7422	947.07
303.15 K, x2 = 0.8021	929.26
303.15 K, x2 = 0.8731	908.5
303.15 K, x2 = 0.9298	892.17
313.15 K, x2 = 0	1183.37
313.15 K, x2 = 0.0621	1160.16
313.15 K, x2 = 0.1298	1135.44
313.15 K, x2 = 0.1924	1113.1
313.15 K, x2 = 0.2499	1092.98
313.15 K, x2 = 0.3234	1067.82
313.15 K, x2 = 0.3891	1045.81
313.15 K, x2 = 0.4348	1030.76
313.15 K, x2 = 0.5109	1006.14
313.15 K, x2 = 0.5782	984.82
313.15 K, x2 = 0.6328	967.81
313.15 K, x2 = 0.6902	950.21
313.15 K, x2 = 0.7591	929.44
313.15 K, x2 = 0.8244	910.1
313.15 K, x2 = 0.8823	893.22
313.15 K, x2 = 0.9357	877.88
323.15 K, x2 = 0	1172.38
323.15 K, x2 = 0.0634	1147.74
323.15 K, x2 = 0.1244	1124.62
323.15 K, x2 = 0.1824	1103.12
323.15 K, x2 = 0.2311	1085.44
323.15 K, x2 = 0.2893	1064.7
323.15 K, x2 = 0.3214	1053.45
323.15 K, x2 = 0.3855	1031.35
323.15 K, x2 = 0.4345	1014.79
323.15 K, x2 = 0.4902	996.28
323.15 K, x2 = 0.5689	970.68
323.15 K, x2 = 0.6321	950.58
323.15 K, x2 = 0.7024	928.68
323.15 K, x2 = 0.7842	903.78
323.15 K, x2 = 0.8725	877.55
323.15 K, x2 = 0.9432	857.03
333.15 K, x2 = 0	1160.59
333.15 K, x2 = 0.0598	1135.86
333.15 K, x2 = 0.1132	1114.33
333.15 K, x2 = 0.1935	1082.9
333.15 K, x2 = 0.2491	1061.75
333.15 K, x2 = 0.3011	1042.41
333.15 K, x2 = 0.3672	1018.4
333.15 K, x2 = 0.4189	1000.06
333.15 K, x2 = 0.4783	979.42
333.15 K, x2 = 0.5389	958.84
333.15 K, x2 = 0.5901	941.8
333.15 K, x2 = 0.6598	919.09
333.15 K, x2 = 0.7243	898.58
333.15 K, x2 = 0.7929	877.26
333.15 K, x2 = 0.8687	854.25
333.15 K, x2 = 0.9244	837.72
343.15 K, x2 = 0	1148
343.15 K, x2 = 0.0587	1121.63
343.15 K, x2 = 0.1321	1089.78
343.15 K, x2 = 0.1849	1067.6
343.15 K, x2 = 0.2378	1045.95
343.15 K, x2 = 0.3012	1020.73
343.15 K, x2 = 0.3519	1001.09
343.15 K, x2 = 0.4242	973.86
343.15 K, x2 = 0.4981	946.94
343.15 K, x2 = 0.5533	927.38
343.15 K, x2 = 0.6232	903.27
343.15 K, x2 = 0.6623	890.09
343.15 K, x2 = 0.7429	863.56
343.15 K, x2 = 0.8122	841.44
343.15 K, x2 = 0.8823	819.66
343.15 K, x2 = 0.9422	801.51
353.15 K, x2 = 0	1134.61
353.15 K, x2 = 0.0623	1103.66
353.15 K, x2 = 0.1133	1079.21
353.15 K, x2 = 0.1892	1044.18
353.15 K, x2 = 0.2489	1017.71
353.15 K, x2 = 0.3129	990.32
353.15 K, x2 = 0.3798	962.71
353.15 K, x2 = 0.4124	949.61
353.15 K, x2 = 0.483	922.01
353.15 K, x2 = 0.5345	902.52
353.15 K, x2 = 0.6084	875.41
353.15 K, x2 = 0.6631	855.98
353.15 K, x2 = 0.7249	834.64
353.15 K, x2 = 0.7931	811.8
353.15 K, x2 = 0.852	792.66
353.15 K, x2 = 0.9123	773.59
